According to patent US8501722B2, “Methods and compositions for treating bacterial infection” (priority 2009, dated 2013):
Where “and” joins values, the source holds several entries; their conditions need not be identical. Identical values can stand only once. Like-named read-outs stand apart in the source and are kept apart here.

Tests used:
SK(+)GAS = test: GAS growth by OD600 nm of culture; type: cell-based, Group A Streptococcus; details: for activity at 2.5 µg/mL / activity at 10 µg/mL / activity at 20 µg/mL / activity at 30 µg/mL / activity at 40 µg/mL / activity at 50 µg/mL / activity at 60 µg/mL / activity at 70 µg/mL / activity at 5 µg/mL / activity at 0.1 µg/mL / activity at 0.3 µg/mL: Streptococcus; for activity at 2.5 µg/mL: read-out: GAS Growth (% control), compound conc. 2.5 μg/ml; for activity at 10 µg/mL: read-out: GAS Growth (% control), compound conc. 10 μg/ml; for activity at 20 µg/mL: read-out: GAS Growth (% control), compound conc. 20 μg/ml; for activity at 30 µg/mL: read-out: GAS Growth (% control), compound conc. 30 μg/ml; for activity at 40 µg/mL: read-out: GAS Growth (% control), compound conc. 40 μg/ml; for activity at 50 µg/mL: read-out: GAS Growth (% control), compound conc. 50 μg/ml; for activity at 60 µg/mL: read-out: GAS Growth (% control), compound conc. 60 μg/ml; for activity at 70 µg/mL: read-out: GAS Growth (% control), compound conc. 70 μg/ml; for activity at 5 µg/mL: read-out: GAS Growth (% control), compound conc. 5 μg/ml; for activity at 0.1 µg/mL: read-out: GAS Growth (% control), compound conc. 0.1 μg/ml; for activity at 0.3 µg/mL: read-out: GAS Growth (% control), compound conc. 0.3 μg/ml

Procedure for streptokinase (SK): SK− Ecoli and SKCtr1's dose response relationship with these compounds were then examined.
The effects of 10 hit compounds out of the 23 identified were further tested by dose response assays. […] These compounds were tested for inhibition of ska expression by measuring SK activity in supernatants of GAS exposed to the test compound or control vehicle alone (DMSO). SK(+)GAS were cultured with hit compounds at a dose range of 10 nM to 100 μM at 37° C. for 16-20 hours. Supernatants of SK(+)GAS cultures were measured for SK activity using chromogenic substrate 2403 (Diapharma group Inc., West Chester, Ohio), according to the manufacturer's instruction and simultaneously monitored for nonspecific effects on GAS growth by measuring OD600 nm.
The positive compounds identified in dose response assays are subjected to SK assay to identify compounds inhibiting SK expression in SK(+)GAS. Briefly, SK(+)GAS is grown at the presence of hit compounds at a dose range determined by dose response assays within which SK(−) GAS growth is inhibited less than 10% while SKKanGAS growth is inhibited more than 50% under 20 μg/ml kanamycin.

Row | SMILES | activity at 2.5 µg/mL (SK(+)GAS) | activity at 10 µg/mL (SK(+)GAS) | activity at 20 µg/mL (SK(+)GAS) | activity at 40 µg/mL (SK(+)GAS) | activity at 70 µg/mL (SK(+)GAS) | SK Expression (% control) (streptokinase (SK); compound conc. 10 μg/ml) | SK Expression (% control) (streptokinase (SK); compound conc. 20 μg/ml) | SK Expression (% control) (streptokinase (SK); compound conc. 30 μg/ml) | SK Expression (% control) (streptokinase (SK); compound conc. 40 μg/ml) | SK Expression (% control) (streptokinase (SK); compound conc. 60 μg/ml) | activity at 5 µg/mL (SK(+)GAS) | SK Expression (% control) (streptokinase (SK); compound conc. 5 μg/ml) | activity at 0.1 µg/mL (SK(+)GAS) | activity at 0.3 µg/mL (SK(+)GAS) | SK Expression (% control) (streptokinase (SK); compound conc. 0.1 μg/ml) | SK Expression (% control) (streptokinase (SK); compound conc. 0.3 μg/ml) | SK Expression (% control) (streptokinase (SK); compound conc. 1.0 μg/ml) | SK Expression (% control) (streptokinase (SK); compound conc. 3 μg/ml) | also measured
1 | C=CCn1c(SCc2ccccc2)nc2c(c1=O)C(C)(C)Cc1ccccc1-2 [compound 25203] | 89% | 92% | 100% | 118% | 143% | 96 % control | 84 % control | 70 % control | 63 % control | 52 % control | – | – | – | – | – | – | – | – | activity at 30 µg/mL (SK(+)GAS): 110%; activity at 50 µg/mL (SK(+)GAS): 125%; activity at 60 µg/mL (SK(+)GAS): 132%; SK Expression (% control) (streptokinase (SK); compound conc. 2.5 μg/ml): 110 % control; SK Expression (% control) (streptokinase (SK); compound conc. 50 μg/ml): 58 % control; SK Expression (% control) (streptokinase (SK); compound conc. 70 μg/ml): 60 % control
2 | C=CCn1c(SCc2ccccc2)nc2c(c1=O)C1(CCCCC1)Cc1ccccc1-2 [compound 575097] | – | 89% | 88% | 86% | – | 92 % control and 88 % control | 82 % control and 79 % control | 79 % control and 77 % control | 72 % control and 74 % control | 63 % control | – | – | – | – | – | – | – | – | activity at 30 µg/mL (SK(+)GAS): 88%; activity at 50 µg/mL (SK(+)GAS): 86%; SK Expression (% control) (streptokinase (SK); compound conc. 50 μg/ml): 70 % control and 67 % control; SK Expression (% control) (streptokinase (SK); compound conc. 70 μg/ml): 65 % control
3 | C=CCn1c(SCCOC)nc2c(c1=O)CC(C)c1ccccc1-2 (stereo not drawn) [CCG-203574, 3-allyl-2-(2-methoxyethylthio)-6-methyl-5,6-dihydrobenzo[h]quinazolin-4(3H)-one] | – | 95% | 85% | 68% | – | 10 % control | 6 % control | – | 6 % control | – | 102% | 80 % control | – | – | – | – | – | – | –
4 | C=CCn1c(NCC)nc2c(c1=O)C1(CCCCC1)Cc1ccccc1-2 [CCG-203043, 3-allyl-2-(ethylamino)-3H-spiro[benzo[h]quinazoline-5,1′-cyclohexan]-4(6H)-one] | 106% | – | 113% | 115% | 124% | 41 % control | – | 32 % control | – | 24 % control | 116% | – | 101% | 104% | 96 % control | 96 % control | 94 % control | 62 % control | –
5 | C=CCn1c(SCCOC)nc2c(c1=O)C(C)(C)Cc1ccccc1-2 [CCG-102624, 3-Allyl-2-(2-methoxyethylthio)-5,5-dimethyl-5,6-dihydrobenzo[h]quinazolin-4(3H)-one] | 101% | 94% | 93% | 87% | 113% | 33 % control and 29 % control | 30 % control | 26 % control | 23 % control | 28 % control | 93% | 30 % control | 100% | 98% | 90 % control | 97 % control | 79 % control | 35 % control | –
6 | C=CCn1c(SCc2ccccn2)nc2c(c1=O)C(C)(C)Cc1ccccc1-2 [CCG-203039, 3-Allyl-5,5-dimethyl-2-(pyridin-2-ylmethylthio)-5,6-dihydrobenzo[h]quinazolin-4(3H)-one] | 104% | – | 104% | 115% | 135% | 49 % control | – | 35 % control | – | 27 % control | 100% | – | 100% | 100% | 94 % control | 95 % control | 93 % control | 58 % control | –
7 | C=CCn1c(SCc2ccc(OC)cc2)nc2c(c1=O)C1(CCCCC1)Cc1ccccc1-2 [CCG-102483, 3-allyl-2-(4-methoxybenzylthio)-3H-spiro[benzo[h]quinazoline-5,1′-cyclohexan]-4(6H)-one] | – | – | – | 115% | – | – | – | – | 80 % control | – | 104% | 119 % control | – | – | – | – | – | – | –
8 | C=CCn1c(SCCOC)nc2c(c1=O)C1(CCCCC1)Cc1ccccc1-2 [CCG-102493, 3-allyl-2-(2-methoxyethylthio)-3H-spiro[benzo[h]quinazoline-5,1′-cyclohexan]-4(6H)-one] | 93% | 94% | – | – | 129% | – | – | 64 % control and 42 % control | – | 52 % control and 27 % control | 92% | 98 % control and 50 % control | 99% | 103% | 75 % control | 98 % control | 54 % control | 51 % control | activity at 30 µg/mL (SK(+)GAS): 110%; activity at 50 µg/mL (SK(+)GAS): 123%; activity at 60 µg/mL (SK(+)GAS): 125%; SK Expression (% control) (streptokinase (SK); compound conc. 2.5 μg/ml): 101 % control; SK Expression (% control) (streptokinase (SK); compound conc. 50 μg/ml): 49 % control; SK Expression (% control) (streptokinase (SK); compound conc. 70 μg/ml): 52 % control
9 | C=CCn1c(SCCOC)nc2c(c1=O)C(C)(C)Cc1cc(OC)ccc1-2 [CCG-203576, 3-allyl-8-methoxy-2-(2-methoxyethylthio)-5,5-dimethyl-5,6-dihydrobenzo[h]quinazolin-4(3H)-one] | 100% | 98% | 99% | 101% | 105% | – | 19 % control | – | 11 % control | – | 99% | 30 % control | 102% | 101% | 99 % control and 93 % control | 99 % control and 98 % control | 99 % control and 89 % control | 100 % control and 61 % control | GAS Growth (% control) (SK(+)GAS; compound conc. 2.5 μg/ml): 100 % control
10 | C=CCn1c(SCCO)nc2c(c1=O)C(C)(C)Cc1ccccc1-2 [CCG-203041, 3-Allyl-2-(2-hydroxyethylthio)-5,5-dimethyl-5,6-dihydrobenzo[h]quinazolin-4(3H)-one] | 104% | – | 107% | 60% | 50% | 57 % control | – | 28 % control | – | 12 % control | 106% | – | 100% | 102% | 93 % control | 90 % control | 90 % control | 87 % control | –
11 | C=CCn1c(OCC)nc2c(c1=O)C1(CCCCC1)Cc1ccccc1-2 [CCG-102622, 3-Allyl-2-ethoxy-3H-spiro[benzo[h]quinazoline-5,1′-cyclohexan]-4(6H)-one] | – | 100% | 103% | 113% | – | 41 % control | 38 % control | – | 23 % control | – | 99% | 43 % control | – | – | – | – | – | – | –
12 | C=CCn1c(SCCc2ccc(OC)cc2)nc2c(c1=O)C1(CCCCC1)Cc1ccccc1-2 [CCG-102489, 3-allyl-2-(4-methoxyphenethylthio)-3H-spiro[benzo[h]quinazoline-5,1′-cyclohexan]-4(6H)-one] | – | – | – | 114% | – | – | – | – | 79 % control | – | 106% | 91 % control | – | – | – | – | – | – | –
13 | C=CCn1c(SCC(N)=O)nc2c(c1=O)C(C)(C)Cc1ccccc1-2 [CCG-203037, 2-(3-Allyl-5,5-dimethyl-4-oxo-3,4,5,6-tetrahydrobenzo[h]quinazolin-2-ylthio)acetamide] | 101% | – | 105% | 102% | 106% | 92 % control | – | 79 % control | – | 38 % control | 102% | – | 98% | 99% | 96 % control | 97 % control | 96 % control | 94 % control | –
14 | C=CCn1c(SCc2cccc(OC)c2)nc2c(c1=O)C1(CCCCC1)Cc1ccccc1-2 [CCG-102485, 3-allyl-2-(3-methoxybenzylthio)-3H-spiro[benzo[h]quinazoline-5,1′-cyclohexan]-4(6H)-one] | – | – | – | 104% | – | – | – | – | 91 % control | – | 102% | 81 % control | – | – | – | – | – | – | –
